Experimental data: ChEMBL document CHEMBL4017474, “A calcineurin antifungal strategy with analogs of FK506” (Bioorg Med Chem Lett, 2017)
Values after ≈ are worked out from the molar mass of the structure shown. Active and inactive are the calls of the source. No cut-off for these calls is given here.

What was measured:
[1] = molecular target: T1, Peptidyl-prolyl cis-trans isomerase FKBP1A (Homo sapiens, UniProt P62942); assay: Antagonist activity at human FKBP12 measured after 30 mins by fluorescein labelled SLF tracer based fluorescence polarization assay
[2] = Antagonist activity at Aspergillus fumigatus FKBP12 measured after 30 mins by fluorescein labelled SLF tracer based fluorescence polarization assay
[3] = molecular target: T1, Peptidyl-prolyl cis-trans isomerase FKBP1A; assay: (§1) Antagonist activity at recombinant human N-terminal His6-tagged FKBP12 expressed in Escherichia coli assessed as inhibition of FKBP12 binding to calcineurin at 5 uL using […] pretreated for 1 hr followed by substrate addition measured after 1 hr by biomol green dye based spectrophotometric method
[4] = molecular target: T1, Peptidyl-prolyl cis-trans isomerase FKBP1A; assay: as §1, with “of FK506 mediated” for “of”, “calcineurin” for “calcineurin at 5 uL”
Jurkat = assay: Immunosuppressive activity in PMA/ionomycin stimulated human Jurkat T cells assessed as suppression of IL2 production pretreated for 15 to 30 mins followed by PMA/ionomycin addition measured after 18 to 20 hrs by ELISA; type: cell-based
PBMC [5] = assay: Reversal of FK506-induced inhibition of cell proliferation in concanavalin A stimulated human PBMC at 1 uM measured after 72 hrs by CellTiter-Glo assay relative to control; type: functional; design: scale not given: the % may be the effect or the level left
PBMC [6] = assay: Antiproliferative activity against concanavalin A stimulated human PBMC at 1 to 2 ug/ml measured after 72 hrs by CellTiter-Glo assay; type: cell-based
Aspergillus fumigatus [7] = assay: Antifungal activity against Aspergillus fumigatus assessed as spore germination at 12.5 ug/ml measured after 48 hrs in presence of FK506 by broth dilution method relative to control; type: functional
Aspergillus fumigatus [8] = assay: Antifungal activity against Aspergillus fumigatus up to 25 ug/ml measured after 48 hrs by broth dilution method; type: functional
HepG2 = assay: Cytotoxicity against human HepG2 cells; type: cell-based
Vero 76 = assay: Cytotoxicity against African green monkey Vero 76 cells; type: cell-based; conditions: Chlorocebus sabaeus
PBMC [9] = assay: Permeability across human PBMC at 1 uM; type: ADME, cell-based
[10] = Clearance in mouse at 3 mg/kg, iv; type: ADME, organism-based; conditions: in vivo
[11] = Volume of distribution at steady state in mouse at 3 mg/kg, iv; type: ADME, organism-based; conditions: in vivo, read-out: Vdss
[12] = Terminal half-life in mouse at 3 mg/kg, iv; type: ADME, organism-based; conditions: in vivo, read-out: beta t1/2 (converted)
[13] = AUClast in mouse at 3 mg/kg, iv; type: ADME, organism-based; design: dose 3 mg/kg, time 0 - last, route intravenous; conditions: in vivo
Cryptococcus neoformans = assay: Antifungal activity against Cryptococcus neoformans by broth macrodilution method; type: functional
Aspergillus fumigatus [14] = assay: Antifungal activity against Aspergillus fumigatus by broth macrodilution method; type: functional
[15] = Tmax in mouse at 10 mg/kg, po; type: ADME, organism-based; conditions: in vivo
[16] = Cmax in mouse at 10 mg/kg, po; type: ADME, organism-based; design: dose 10 mg/kg, route oral; conditions: in vivo
[17] = AUClast in mouse at 10 mg/kg, po; type: ADME, organism-based; design: dose 10 mg/kg, time 0 - last, route oral; conditions: in vivo

T1 sequence (P62942 whole entry): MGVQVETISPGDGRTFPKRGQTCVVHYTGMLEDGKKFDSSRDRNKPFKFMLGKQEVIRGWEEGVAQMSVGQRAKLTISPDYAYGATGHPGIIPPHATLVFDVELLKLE

Row | IC50 [1] | IC50 [2] | inhibition [3] | IC50 (Jurkat) | permeability (PBMC [9]) | clearance [10] | Vd [11] | half-life [12] | AUC(0-t) [13] | Structure (SMILES) | Activity (PBMC [5]) | Activity (PBMC [6]) | Activity (Aspergillus fumigatus [7]) | Activity (Aspergillus fumigatus [8]) | IC50 (HepG2) | IC50 (Vero 76) | also measured
1 | 12.6 nM | 16.8 nM | inactive | > 10000 nM | 100% |  |  |  |  | CO[C@H]1C[C@@H](C)C/C(C)=C/[C@@H](CC(=O)N2CCN(C)CC2)C(=O)C[C@H](O)[C@@H](C)[C@@H](/C(C)=C/[C@@H]2CC[C@@H](O)[C@H](OC)C2)OC(=O)[C@@H]2CCCCN2C(=O)C(=O)[C@]2(O)O[C@H]1[C@@H](OC)C[C@H]2C | 102.8% | Non-Toxic | 43.1% | inactive | > 100000 nM | > 100000 nM | IC50 [4]: 1100 nM
2 |  | 18.4 nM | inactive | 360 nM |  | 29.5 mL/min/kg | 1.8 L/kg | 57.1 min | 1620 ng·h/mL | C=CC[C@@H]1/C=C(\C)C[C@H](C)C[C@H](OC)[C@H]2O[C@@](O)(C(=O)C(=O)N3CCCC[C@H]3C(=O)O[C@H](/C(C)=C/[C@@H]3CC[C@@H](O)[C@H](OC)C3)[C@H](C)[C@@H](O)CC1=O)[C@H](C)C[C@@H]2OC [TACROLIMUS ANHYDROUS] |  |  |  |  | > 100000 nM | > 100000 nM | MIC (Cryptococcus neoformans): 0.01 µg/mL (≈ 0.0124 µM); MIC (Aspergillus fumigatus [14]): 0.025 µg/mL (≈ 0.0311 µM)
3 | 27 nM |  | inactive | > 10000 nM | 100% | 22.8 mL/min/kg | 1.17 L/kg | 47.6 min | 2110 ng·h/mL | CO[C@H]1C[C@@H](C)C/C(C)=C/[C@@H](CCCSCCO)C(=O)C[C@H](O)[C@@H](C)[C@@H](/C(C)=C/[C@@H]2CC[C@@H](O)[C@H](OC)C2)OC(=O)[C@@H]2CCCCN2C(=O)C(=O)[C@]2(O)O[C@H]1[C@@H](OC)C[C@H]2C | 96.5% | Non-Toxic | 37.5% | inactive | > 100000 nM | > 100000 nM | Tmax [15]: 30 min; Cmax [16]: 1640 ng/mL; AUC(0-t) [17]: 2710 ng·h/mL
